Patent publication US20230032473A1, “NAD(H) NANOPARTICLES AND METHODS OF USE” (Wisconsin Alumni Research Foundation, priority 2021, published 2023)

Key:
LPS-stimulated BMDM = assay: Pro-inflammatory cytokine levels by ELISA in LPS-stimulated BMDM; format: cell-based, murine; settings: LPS 100 ng/mL, 10 μM NAD(H) equivalent, 12 h
Text: Measurement of inflammation related cytokine levels. […] Twelve hours after the treatment, the cell culture media were collected to analyze the cytokine production by ELISA kits supplied by R&D Systems according to the manufacturer's instructions. Data were collected by monitoring the difference between the absorbance at 450 nm and 570 nm using the Microplate Reader.

[1] = system: CLP-induced sepsis with P. aeruginosa secondary infection; assay: Cecal ligation and puncture (CLP) and P. aeruginosa secondary infection model; format: in vivo, mice
Text: Cecal ligation and puncture (CLP) and P. aeruginosa secondary infection model. Mice were anesthetized with isoflurane. Thereafter, the abdominal cavity was opened with a midline incision to expose the cecum. The distal 50% of the cecum was ligated with a 6-0 silk suture and perforated with a 19-gauge needle twice. Subsequently, a small amount of feces was squeezed out and spread around the cecum. The cecum was relocated into the peritoneal cavity, and the laparotomy site was closed, followed by subcutaneous injection of 1 mL resuscitative prewarmed sterile saline (Dawulieti, J. et al. Treatment of severe sepsis with nanoparticulate cell-free DNA scavengers. Science advances 6, eaay7148 (2020)). This level of injury was utilized to create a prolonged infection that impaired immune system and induced approximate 30% mortality. Two injections of free NAD^+ (20 mg/kg per injection), LP-CaP, or NAD^+-LP-CaP (an equivalent dose of NAD^+20 mg/kg per injection) were given through tail vein 6 h and 24 h after the surgery. […] Mice survival and body weight were recorded over time and presented using Kaplan—Meier curves (n=14). […] The CLP mice were monitored twice daily and their conditions were evaluated using a sepsis scoring sheet. […]

Question: With `NC(=O)C1=CN([C@@H]2O[C@H](COP(=O)([O-])OP(=O)([O-])OC[C@H]3O[C@@H](n4cnc5c(N)ncnc54)[C@H](O)[C@@H]3O)[C@@H](O)[C@H]2O)C=CC1.[Na+].[Na+]` [NADH, β-Nicotinamide adenine dinucleotide, reduced disodium salt] as the compound, how does the “production of IL-6” value (LPS-stimulated BMDM) read?
Answer: The value was “did not affect”.

Question: And the “production of TNF-α” value (LPS-stimulated BMDM)?
Answer: The value was “did not affect”.

Question: What does the source list for `NC(=O)C1=CN([C@@H]2O[C@H](COP(=O)(O)OP(=O)(O)OC[C@H]3O[C@@H](n4cnc5c(N)ncnc54)[C@H](O)[C@@H]3O)[C@@H](O)[C@H]2O)C=CC1` [free NAD^+, β-Nicotinamide adenine dinucleotide]?
Answer: production of IL-6 (LPS-stimulated BMDM): did not affect; production of TNF-α (LPS-stimulated BMDM): did not affect; survival rate [1]: did not improve the survival rate
